Where a name gives a salt, the structure may show the parent alone.
Key:
[1] = molecular target: T1, α1A Human Adrenergic Receptor (Homo sapiens, UniProt P35348); assay: Radioligand binding, [3H]prazosin displacement, cloned human α1A receptor (LM(tk-) cell membranes); conditions: [3H]prazosin 0.5 nM, 37° C., 20 min; for Ki: read-out: hα1A pKi (converted)
T1 construct: The entire coding region of α1A (1401 bp); expressed in transfected cells
T1 sequence (P35348 1-466): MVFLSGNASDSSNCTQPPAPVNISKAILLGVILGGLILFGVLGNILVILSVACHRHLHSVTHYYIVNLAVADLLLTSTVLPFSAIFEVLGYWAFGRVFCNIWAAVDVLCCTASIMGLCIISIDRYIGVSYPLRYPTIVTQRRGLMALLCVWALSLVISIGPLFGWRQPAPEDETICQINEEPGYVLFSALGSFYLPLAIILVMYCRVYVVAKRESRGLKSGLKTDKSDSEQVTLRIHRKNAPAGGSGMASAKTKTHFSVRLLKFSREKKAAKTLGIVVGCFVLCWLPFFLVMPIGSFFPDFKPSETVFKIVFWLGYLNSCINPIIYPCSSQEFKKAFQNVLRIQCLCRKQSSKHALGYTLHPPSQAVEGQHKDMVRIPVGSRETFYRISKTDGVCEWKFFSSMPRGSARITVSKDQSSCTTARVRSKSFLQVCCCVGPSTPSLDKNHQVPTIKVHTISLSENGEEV
Procedure: (§1) The activity of compounds at the different human receptors was determined in vitro using cultured cell lines that selectively express the receptor of interest. These cell lines were prepared by transfecting the cloned cDNA or cloned genomic DNA or constructs containing both genomic DNA and cDNA encoding the human α-adrenergic receptors as follows:
The entire coding region of α1A (1401 bp), including 400 base pairs of 5' untranslated sequence (5' UT) and 200 bp of 3' untranslated sequence (3' UT), was cloned into the KpnI site of the polylinker-modifiedpCEXV-3-derived eukaryotic expression vector, EXJ.RH. The construct involved ligating three partial overlapping fragments: a 5' 0.6kb HincII genomic clone, a central 1.8 EcoRI hippocampal cDNA clone, and a 3' 0.6Kb PstI genomic clone. The hippocampal cDNA fragment overlaps with the 5' and 3' genomic clones so that the HincII and PstI sites at the 5' and 3' ends of the cDNA clone, respectively, were utilized for ligation. This full-length clone was cloned into the KpnI site of the expression vector, using the 5' and 3' KpnI sites of the fragment, derived from vector (i.e., pBluescript) and 3'-untranslated sequences, respectively. Stable cell lines were selected as described above. The stable cell line expressing the human α1A receptor used herein was designated L-α1C (old nomenclature) and was deposited with the American Type Culture Collection, 12301 Parklawn Drive, Rockville, Md. 20852, U.S.A. under the provisions of the Budapest Treaty for the International Recognition of the Deposit of Microorganisms for the Purposes of Patent Procedure. The cell line expressing the human α1A receptor was accorded Accession No. CRL 11140, on Sep. 25, 1992.
(§2) Transfected cells from culture flasks were scraped into 5 ml of 5 mM Tris-HCl, 5 mM EDTA, pH 7.5, and lysed by sonication. The cell lysates were centrifuged at 1000 rpm for 5 min at 4° C., and the supernatant was centrifuged at 30,000×g for 20 min at 4° C. The pellet was suspended in 50 mM Tris-HCl, 1 mM MgCl2, and 0.1% ascorbic acid at pH 7.5. Binding of the α1 antagonist [^3 H]prazosin (0.5 nM, specific activity 76.2 Ci/mmol) to membrane preparations of LM(tk-) cells was done in a final volume of 0.25 ml and incubated at 37° C. for 20 min. Nonspecific binding was determined in the presence of 10 μM phentolamine. The reaction was stopped by filtration through GF/B filters using a cell harvester. Inhibition experiments, routinely consisting of 7 concentrations of the tested compounds, were analyzed using a non-linear regression curve-fitting computer program to obtain Ki values.

[2] = molecular target: T2, α1B Human Adrenergic Receptor (Homo sapiens, UniProt P35368); assay: Radioligand binding, [3H]prazosin displacement, cloned human α1B receptor (LM(tk-) cell membranes); conditions: [3H]prazosin 0.5 nM, 37° C., 20 min; for Ki: read-out: hα1B pKi (converted)
T2 construct: The entire coding region of a1B (1563 bp); expressed in transfected cells
T2 sequence (P35368 1-520): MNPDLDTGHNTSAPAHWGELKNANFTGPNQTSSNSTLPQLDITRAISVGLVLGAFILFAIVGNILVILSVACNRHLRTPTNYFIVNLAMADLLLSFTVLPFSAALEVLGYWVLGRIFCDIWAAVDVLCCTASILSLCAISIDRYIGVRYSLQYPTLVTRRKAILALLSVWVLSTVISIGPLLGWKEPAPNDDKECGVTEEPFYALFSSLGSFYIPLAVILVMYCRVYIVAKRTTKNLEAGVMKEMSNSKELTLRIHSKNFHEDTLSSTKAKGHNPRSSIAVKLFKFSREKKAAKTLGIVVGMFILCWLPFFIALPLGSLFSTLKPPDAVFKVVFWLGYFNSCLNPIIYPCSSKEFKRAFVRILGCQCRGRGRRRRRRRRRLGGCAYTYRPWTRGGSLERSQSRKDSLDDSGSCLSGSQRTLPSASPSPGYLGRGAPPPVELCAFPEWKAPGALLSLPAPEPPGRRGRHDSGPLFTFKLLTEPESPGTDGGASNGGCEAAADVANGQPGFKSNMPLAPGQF
Procedure: as §1
The entire coding region of a1B (1563 bp), including 200 base pairs and 5' untranslated sequence (5' UT) and 600 bp of 3' untranslated sequence (3' UT), was cloned into the EcoRI site of pCEXV-3 eukaryotic expression vector. The construct involved ligating the full-length containing EcoRI brainstem cDNA fragment from λ ZapII into the expression vector. Stable cell lines were selected as described above. The cell line used herein was designated L-α1B and was deposited with the American Type Culture Collection, 12301 Parklawn Drive, Rockville, Md. 20852, U.S.A. under the provisions of the Budapest Treaty for the International Recognition of the Deposit of Microorganisms for the Purposes of Patent Procedure. The cell line L-α1B was accorded ATCC Accession No. CRL 11139, on Sep. 25, 1992.
as §2

Row | Ki [1] | Ki [2] | hα1A pKi [1] | hα1B pKi [2] | Compound
1 | 4.47 nM | 1120 nM | – | – | COCC1=C(C(=O)OC)C(c2ccc(F)c(F)c2)N(C(=O)NCCN[C@H]2CC[C@H](c3ccccn3)CC2)C(=O)N1 (single isomer, unassigned; (+)) [Example 7, (+)-trans-6-(3,4-Difluorophenyl)-1-{N-[2-(4-(2-pyridyl)-cyclohexylamino)ethyl]}carboxamido-5-methoxycarbonyl-4-methoxymethyl-2-oxo-1,2,3,6-tetrahydropyrimidine hydrochloride]
2 | 0.135 nM | 18.6 nM | – | – | COCC1=C(C(=O)OC)C(c2ccc(F)c(F)c2)N(C(=O)NCCN[C@H]2CC[C@](C#N)(c3ccccc3)CC2)C(=O)N1 (single isomer, unassigned; (+)) [Example 4, (+)-cis-6-(3,4-Difluorophenyl)-1-{N-[2-(4-cyano-4-phenyl-cyclohexylamino)ethyl]}carboxamido-5-methoxycarbonyl-4-methoxymethyl-2-oxo-1,2,3,6-tetrahydropyrimidine hydrochloride]
3 | – | – | 9.51 | 7.76 | cis-6-(3,4,5-Trifluorophenyl)-1-{N-[2-(4-cyano-4-phenyl-cyclohexylamino)ethyl]}-carboxamido-5-acetyl-4-methoxymethyl-2-oxo-1,2,3,6-tetrahydropyrimidine hydrochloride [Example 2]
4 | 0.102 nM | 13.5 nM | – | – | COC(=O)C1=C(C)NC(=O)N(C(=O)NCCN[C@H]2CC[C@](C#N)(c3ccccc3F)CC2)C1c1ccc(F)c(F)c1 (single isomer, unassigned; (+)) [Example 13, (+)-cis-6-(3,4-Difluorophenyl)-1-{N-[2-(4-cyano-4-(2-fluorophenyl)-cyclohexylamino)ethyl]}carboxamido-5-methoxycarbonyl-4-methyl-2-oxo-1,2,3,6-tetrahydropyrimidine hydrochloride]

More lines, now with the values behind:

Row | Compound | Ki [1] | Ki [2] | hα1A pKi [1] | hα1B pKi [2]
5 | COCC1=C(C(=O)OC)C(c2ccc(F)c(F)c2)N(C(=O)NCCN[C@H]2CC[C@](C(=O)OC)(c3ccccc3)CC2)C(=O)N1 (single isomer, unassigned; (+)) [Example 11, (+)-cis-6-(3,4-Difluorophenyl)-1-{N-[2-(4-methoxycarbonyl-4-phenyl-cyclohexylamino)ethyl]}carboxamido-5-methoxycarbonyl-4-methoxymethyl-2-oxo-1,2,3,6-tetrahydropyrimidine hydrochloride] | 0.219 nM | 27.5 nM | – | –
6 | CCC1=C(C(N)=O)C(c2ccc(F)cc2F)N(C(=O)NCCN[C@H]2CC[C@](C#N)(c3ccccc3)CC2)C(=O)N1 (single isomer, unassigned; (+)) [Example 3, (+)-cis-5-Carboxamido-6-(2,4-difluorophenyl)-1-{N-[2-(4-cyano-4-phenyl-cyclohexylamino)ethyl]}carboxamido-4-ethyl-2-oxo-1,2,3,6-tetrahydropyrimidine hydrochloride] | 0.49 nM | 100 nM | – | –
7 | COCC1=C(C(=O)OC)C(c2ccc(F)c(F)c2)N(C(=O)NCCN[C@H]2CC[C@](C#N)(c3ccccn3)CC2)C(=O)N1 (single isomer, unassigned; (+)) [Example 14, (+)-cis-6-(3,4-Difluorophenyl)-1-{N-[2-(4-cyano-4-(2-pyridyl)-cyclohexylamino)ethyl]}carboxamido-5-methoxycarbonyl-4-methoxymethyl-2-oxo-1,2,3,6-tetrahydropyrimidine hydrochloride] | 0.933 nM | 282 nM | – | –
8 | COCC1=C(C(=O)OC)C(c2ccc(F)c(F)c2)N(C(=O)NCCN[C@H]2CC[C@@](C#N)(c3ccccc3)CC2)C(=O)N1 (single isomer, unassigned; (+)) [Example 5, (+)-trans-6-(3,4-Difluorophenyl)-1-{N-[2-(4-cyano-4-phenyl-cyclohexylamino)ethyl]}carboxamido-5-methoxycarbonyl-4-methoxymethyl-2-oxo-1,2,3,6-tetrahydropyrimidine hydrochloride] | 0.126 nM | 26.9 nM | – | –

From US6172066A, “Dihydropyrimidines and uses thereof” (Synaptic Pharmaceutical Corporation, priority 1997, dated 2001)
